23 compounds from patent US20100256183A1, “FUNGICIDAL 2-ALKYLTHIO-2-QUINOLINYLOXY-ACETAMIDE DERIVATIVES” (priority 2007, published 2010) can be followed below.

One assay relates to Plasmopara viticola. The assay is described as follows: Leaf disk assay, Plasmopara viticola (downy mildew of grapevine). The assay is classed as in vivo. The conditions noted are these: foliar, 168 h, read-out: control of fungal infection.
For another assay, the system named is Septoria nodorum. The experiment in a line: Leaf disk assay, Septoria nodorum (wheat glume blotch). The assay is classed as in vivo. Particulars: for pest or weed control at 200 ppm: Parastagonospora nodorum, foliar, 96 h, read-out: control of fungal infection.
The test system of the next assay is Pythium ultimum. The experiment in a line: Pythium ultimum (damping off) growth inhibition in potato dextrose broth, photometric. The assay is classed as cell-based. The conditions noted are these: Globisporangium ultimum, read-out: control of fungal infection.
Assay [1] relates to Erysiphe graminis f.sp. tritici. The experiment in a line: Leaf disk assay, Erysiphe graminis f.sp. tritici (wheat powdery mildew). The assay is classed as in vivo. Particulars: Blumeria graminis, foliar, 96 h, read-out: control of fungal infection.
The next assay has as its system Phytophthora infestans. The experiment in a line: whole plant or invertebrate. The assay is classed as in vivo. Particulars: in Solanum lycopersicum, foliar, 96 h, read-out: control of fungal infection.
A further assay relates to Pyricularia oryzae. The experiment in a line: whole plant or invertebrate. Particulars: foliar, 96 h, read-out: control of fungal infection. It is filed as in vivo.
Setting [2] is: 200 ppm, grapevine leaf disks, preventive, seven days after inoculation.
[3] abbreviates: 200 ppm, wheat leaf segments, preventive, four days after inoculation.
The mark [4] stands for this setting: 20 ppm, preventive, four days after inoculation.
The mark [5] stands for this setting: 60 ppm, preventive, four days after inoculation.
The mark [6] stands for this setting: 200 ppm, preventive, four days after inoculation.
Setting [7] is: 20 ppm, inhibition of growth after 48 hours at 24° C.

Where two headings read alike, the source gives them in different places. Bounds are passed on as bounds.

As for `CCC#CC(C)(C)NC(=O)C(Oc1cc(C)c2ncc(Br)cc2c1)SC` (centres unmarked) [4(4), 2-(3-Bromo-8-methyl-quinolin-6-yloxy)-N-(1,1-dimethyl-pent-2-ynyl)-2-methylsulfanyl-acetamide], the pest or weed control at 200 ppm with Plasmopara viticola was at least 60%.
Consider `C#CC(C)(NC(=O)C(Oc1cc(C)c2ncc(Br)cc2c1)SC)C(C)C` (centres unmarked) [12(4), 2-(3-Bromo-8-methyl-quinolin-6-yloxy)-N-(1-isopropyl-1-methyl-prop-2-ynyl)-2-methylsulfanyl-acetamide], for which the pest or weed control at 200 ppm in the assay on Plasmopara viticola (setting [2]) and with Septoria nodorum (setting [3]) was at least 60% each time.
Consider `COCCC#CC(C)(C)NC(=O)C(Oc1cc(C)c2ncc(Br)cc2c1)SC` (centres unmarked) [5(4), 2-(3-Bromo-8-methyl-quinolin-6-yloxy)-N-(5-methoxy-1,1-dimethyl-pent-2-ynyl)-2-methylsulfanyl-acetamide], for which the pest or weed control at 200 ppm (in the assay on Plasmopara viticola; in assay [1]; in the assay with Phytophthora infestans) was at least 60% in each case. In addition, the inhibition of growth at 20 ppm in the assay on Pythium ultimum (48 h) was at least 60%.
In the case of `COCCC#CC(C)(C)NC(=O)C(Oc1cc(C)c2ncc(Cl)cc2c1)SC` (centres unmarked) [21(4), 2-(3-Chloro-8-methyl-quinolin-6-yloxy)-N-(5-methoxy-1,1-dimethyl-pent-2-ynyl)-2-methylsulfanyl-acetamide], the pest or weed control at 200 ppm (with Plasmopara viticola; in assay [1]; in the assay on Phytophthora infestans) was at least 60% each time. Besides, the inhibition of growth at 20 ppm in the assay on Pythium ultimum (48 h) is at least 60%.
Consider `C#CCOCC#CC(C)(C)NC(=O)C(Oc1cc(C)c2ncc(Br)cc2c1)SC` (centres unmarked) [29(4), 2-(3-Bromo-8-methyl-quinolin-6-yloxy)-N-(1,1-dimethyl-4-prop-2-ynyloxy-but-2-ynyl)-2-methylsulfanyl-acetamide], for which the pest or weed control at 200 ppm (in the assay on Pyricularia oryzae; in assay [1]) was at least 60% in each case.
For the compound `CSC(Oc1cc(C)c2ncc(Br)cc2c1)C(=O)NC(C)(C)C#CC(C)(O)CCl` (centres unmarked) [27(4), 2-(3-Bromo-8-methyl-quinolin-6-yloxy)-N-(5-chloro-4-hydroxy-1,1,4-trimethyl-pent-2-ynyl)-2-methylsulfanyl-acetamide], the pest or weed control at 200 ppm (in the assay with Plasmopara viticola; in assay [1]) was at least 60% throughout.
Regarding `CCC#CC(C)(C)NC(=O)C(Oc1cc(C)c2ncc(Cl)cc2c1)SC` (centres unmarked) [20(4), 2-(3-Chloro-8-methyl-quinolin-6-yloxy)-N-(1,1-dimethyl-pent-2-ynyl)-2-methylsulfanyl-acetamide], in the assay on Phytophthora infestans, the pest or weed control at 200 ppm was at least 60%.
Regarding `C#CC(C)(C)NC(=O)C(Oc1ccc2ncc(Cl)cc2c1)SC` (centres unmarked) [Compound 1(23), reference compound], the “Efficacy (%)” value with Septoria nodorum (setting [4]), in the assay with Septoria nodorum (setting [5]) and in the assay on Septoria nodorum (setting [6]) was 0% throughout.
Turning to `C#CC(C)(C)NC(=O)C(Oc1cc(C)c2ncc(Cl)cc2c1)SC` (centres unmarked) [Compound 17(4), 2-(3-Chloro-8-methyl-quinolin-6-yloxy)-N-(1,1-dimethyl-prop-2-ynyl)-2-methylsulfanyl-acetamide], the pest or weed control at 200 ppm (in the assay on Plasmopara viticola (setting [2]); in the assay on Pyricularia oryzae; in assay [1] (setting [3]); in the assay on Septoria nodorum (setting [3]); in the assay with Phytophthora infestans) was at least 60% in each case. Besides, the inhibition of growth at 20 ppm in the assay with Pythium ultimum (setting [7]) is at least 60%. In addition, the results for the “Efficacy (%)” value with Septoria nodorum (setting [4]), in the assay with Septoria nodorum (setting [5]) and with Septoria nodorum (setting [6]) were 80%, 100% and 100%, respectively.
As for `CSC(Oc1cc(C)c2ncc(Br)cc2c1)C(=O)NC(C)(C)C#C/C=C/CO` (centres unmarked) [24(4), 2-(3-Bromo-8-methyl-quinolin-6-yloxy)-N-((E)-6-hydroxy-1,1-dimethyl-hex-4-en-2-ynyl)-2-methylsulfanyl-acetamide], the pest or weed control at 200 ppm (in the assay with Plasmopara viticola (setting [2]); in assay [1] (setting [3]); with Phytophthora infestans) was at least 60% each time. Also, the inhibition of growth at 20 ppm with Pythium ultimum (setting [7]) is at least 60%.
For the compound `COCOCC#CC(C)(C)NC(=O)C(Oc1cc(C)c2ncc(Br)cc2c1)SC` (centres unmarked) [31(4), 2-(3-Bromo-8-methyl-quinolin-6-yloxy)-N-(4-methoxymethoxy-1,1-dimethyl-but-2-ynyl)-2-methylsulfanyl-acetamide], the inhibition of growth at 20 ppm in the assay with Pythium ultimum (48 h) is at least 60%. Besides, the pest or weed control at 200 ppm (in assay [1]; in the assay with Phytophthora infestans) was at least 60% throughout.
For `CC#CC(C)(CC)NC(=O)C(Oc1cc(C)c2ncc(Br)cc2c1)SC` (centres unmarked) [8(4), 2-(3-Bromo-8-methyl-quinolin-6-yloxy)-N-(1-ethyl-1-methyl-but-2-ynyl)-2-methylsulfanyl-acetamide], the pest or weed control at 200 ppm in the assay on Plasmopara viticola and in the assay on Septoria nodorum was at least 60% throughout.
As for `C#CC(C)(C)NC(=O)C(Oc1cc(CC)c2ncc(Br)cc2c1)SC` (centres unmarked) [33(4), 2-(3-Bromo-8-ethyl-quinolin-6-yloxy)-N-(1,1-dimethyl-prop-2-ynyl)-2-methylsulfanyl-acetamide], the pest or weed control at 200 ppm (with Plasmopara viticola (setting [2]); with Pyricularia oryzae; in assay [1] (setting [3]); with Septoria nodorum (setting [3])) was at least 60% in each case. Further, the inhibition of growth at 20 ppm with Pythium ultimum (setting [7]) was at least 60%.
Consider `CC#CC(C)(C)NC(=O)C(Oc1cc(CC)c2ncc(Br)cc2c1)SC` (centres unmarked) [34(4), 2-(3-Bromo-8-ethyl-quinolin-6-yloxy)-N-(1,1-dimethyl-but-2-ynyl)-2-methylsulfanyl-acetamide], for which the pest or weed control at 200 ppm (in the assay on Plasmopara viticola; in assay [1]) was at least 60% in each case. For the same compound, the inhibition of growth at 20 ppm in the assay on Pythium ultimum (48 h) was at least 60%.
As to `C#CC(C)(CC)NC(=O)C(Oc1cc(C)c2ncc(Br)cc2c1)SC` (centres unmarked) [7(4), 2-(3-Bromo-8-methyl-quinolin-6-yloxy)-N-(1-ethyl-1-methyl-prop-2-ynyl)-2-methylsulfanyl-acetamide], the pest or weed control at 200 ppm (in the assay with Plasmopara viticola (setting [2]); in the assay on Pyricularia oryzae; in assay [1] (setting [3]); in the assay with Septoria nodorum (setting [3])) was at least 60% each time.
For the compound `CCOCC#CC(C)(C)NC(=O)C(Oc1cc(C)c2ncc(Br)cc2c1)SC` (centres unmarked) [22(4), 2-(3-Bromo-8-methyl-quinolin-6-yloxy)-N-(4-ethoxy-1,1-dimethyl-but-2-ynyl)-2-methylsulfanyl-acetamide], the pest or weed control at 200 ppm in the assay with Plasmopara viticola is at least 60%.
In the case of `COCC#CC(C)(C)NC(=O)C(Oc1cc(C)c2ncc(Cl)cc2c1)SC` (centres unmarked) [19(4), 2-(3-Chloro-8-methyl-quinolin-6-yloxy)-N-(4-methoxy-1,1-dimethyl-but-2-ynyl)-2-methylsulfanyl-acetamide], the pest or weed control at 200 ppm (with Plasmopara viticola; in assay [1]; in the assay with Phytophthora infestans) was at least 60% throughout. The inhibition of growth at 20 ppm in the assay on Pythium ultimum (48 h) was at least 60%.
Consider `C=CCOCC#CC(C)(C)NC(=O)C(Oc1cc(C)c2ncc(Br)cc2c1)SC` (centres unmarked) [28(4), N-(4-Allyloxy-1,1-dimethyl-but-2-ynyl)-2-(3-bromo-8-methyl-quinolin-6-yloxy)-2-methylsulfanyl-acetamide], for which, in the assay on Pythium ultimum (48 h), the inhibition of growth at 20 ppm is at least 60%. The pest or weed control at 200 ppm (in assay [1]; in the assay with Septoria nodorum; in the assay on Phytophthora infestans) was at least 60% each time.
Take `COCC#CC(C)(C)NC(=O)C(Oc1cc(C)c2ncc(Br)cc2c1)SC` (centres unmarked) [3(4), 2-(3-Bromo-8-methyl-quinolin-6-yloxy)-N-(4-methoxy-1,1-dimethyl-but-2-ynyl)-2-methylsulfanyl-acetamide]: the pest or weed control at 200 ppm (with Plasmopara viticola; in the assay with Pyricularia oryzae; in assay [1]; with Septoria nodorum; in the assay with Phytophthora infestans) was at least 60% each time.
As to `CCc1cc(OC(SC)C(=O)NC(C)(C)C#CCOC)cc2cc(Br)cnc12` (centres unmarked) [35(4), 2-(3-Bromo-8-ethyl-quinolin-6-yloxy)-N-(4-methoxy-1,1-dimethyl-but-2-ynyl)-2-methylsulfanyl-acetamide], the pest or weed control at 200 ppm (in the assay on Plasmopara viticola; in the assay with Pyricularia oryzae; in assay [1]; in the assay on Septoria nodorum; with Phytophthora infestans) was at least 60% in each case. Besides, the inhibition of growth at 20 ppm in the assay on Pythium ultimum (48 h) was at least 60%.
Consider `COCCOCCC#CC(C)(C)NC(=O)C(Oc1cc(C)c2ncc(Br)cc2c1)SC` (centres unmarked) [25(4), 2-(3-Bromo-8-methyl-quinolin-6-yloxy)-N-[5-(2-methoxy-ethoxy)-1,1-dimethyl-pent-2-ynyl]-2-methylsulfanyl-acetamide], for which the pest or weed control at 200 ppm with Plasmopara viticola and in the assay on Phytophthora infestans was at least 60% throughout. Besides, the inhibition of growth at 20 ppm in the assay with Pythium ultimum (48 h) is at least 60%.
As to `COCCOCOCC#CC(C)(C)NC(=O)C(Oc1cc(C)c2ncc(Br)cc2c1)SC` (centres unmarked) [32(4), 2-(3-Bromo-8-methyl-quinolin-6-yloxy)-N-[4-(2-methoxy-ethoxymethoxy)-1,1-dimethyl-but-2-ynyl]-2-methylsulfanyl-acetamide], the pest or weed control at 200 ppm (with Plasmopara viticola; in assay [1]; with Phytophthora infestans) was at least 60% throughout.
Turning to `CSC(Oc1cc(C)c2ncc(Br)cc2c1)C(=O)NC(C)(C)C#CCO` (centres unmarked) [30(4), 2-(3-Bromo-8-methyl-quinolin-6-yloxy)-N-(4-hydroxy-1,1-dimethyl-but-2-ynyl)-2-methylsulfanyl-acetamide], the pest or weed control at 200 ppm (in the assay with Pyricularia oryzae; in assay [1]; in the assay on Septoria nodorum; in the assay on Phytophthora infestans) was at least 60% each time. In the assay with Pythium ultimum (48 h), the inhibition of growth at 20 ppm was at least 60%.
